Experimental data as given in patent US9090593B2, “Bicyclic compounds as Pim inhibitors” (AMGEN INC., priority 2010, dated 2015).
Where a name gives a salt, the structure may show the parent alone. Read-outs that look alike come from different tables or passages of the source.

Columns and labels:
[1] = molecular target: T1, full length recombinant Pim-1 protein (Homo sapiens, UniProt P11309); assay: Pim-1 enzyme assay (HTRF, phosphorylation of biotinylated-BAD (S112) peptide); format: biochemical; details: read-out: Pim_1_IC50
T1 construct: by full length recombinant Pim-1, Pim-2, or Pim-3 protein; hexahistidine tag followed by a thrombin cleavage site (N); made in house; host or cells: Sf9 (baculovirus) or E. coli (pET28)
Summary of the method: (§1)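 HTRF readout (europium anti-pBAD S112 antibody, streptavidin-APC) of biotin-BAD peptide phosphorylation by recombinant full-length Pim-1 or Pim-2, buffer 60 mM Hepes pH 7.0, 2 mM DTT, 0.05% BSA. Enzymes were His6-tagged, from baculovirus/Sf9 or E. coli.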

[2] = tested on: KMS-Cell; assay: KMS cell IC50 (Table 4); format: cell-based; details: KMS cells
[3] = molecular target: T2, full length recombinant Pim-2 protein (Homo sapiens, UniProt Q9P1W9); assay: Pim-2 enzyme assay (HTRF, phosphorylation of biotinylated-BAD (S112) peptide); format: biochemical; details: read-out: Pim2_IC50
T2 construct: by full length recombinant Pim-1, Pim-2, or Pim-3 protein; hexahistidine tag followed by a thrombin cleavage site (N); made in house; host or cells: Sf9 (baculovirus) or E. coli (pET28)
Summary of the method: as §1

[4] = molecular target: T3, full length recombinant Pim-3 protein (Homo sapiens, UniProt Q86V86); assay: Pim-3 enzyme assay (HTRF, phosphorylation of biotinylated-BAD (S112) peptide); format: biochemical; details: read-out: Pim3 IC50
T3 construct: by full length recombinant Pim-1, Pim-2, or Pim-3 protein; purchased Millipore (UK)
Summary of the method: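 HTRF read-out, streptavidin-APC plus Eu-labelled anti-phospho-BAD (S112) antibody, measures BAD peptide phosphorylation by full-length recombinant Pim-3. Buffer: 60 mM Hepes pH 7.0, 2 mM DTT, 0.05% BSA; EDTA (3 mM) stop. Percent of control per well, IC50 by 4-parameter logistic fit.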

[5] = molecular target: T4, Pim-2 stably transfected into the U2OS human osteogenic sarcoma line (Homo sapiens, UniProt Q9P1W9); assay: Pim cell assay, phospho-BAD normalized against total BAD, U2OS stably transfected with Pim-2; format: cell-based; details: read-out: Pim2_Cell_IC50; note: high dose 31.6 µM
T4 construct: expressed in transfected cells; host or cells: U2OS human osteogenic sarcoma line
Summary of the method: (§2)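 Read-out is phospho-BAD relative to total BAD, by MSD electrochemiluminescence on lysates, expressed as % phosphoprotein = (2×phospho)/(phospho+total)×100. Engineered U2OS lines carrying stably transfected Pim-1 or Pim-2 received 10-point compound dilutions at 0.3% final DMSO after overnight culture at 37 °C; DMSO-only wells served as high control.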

[6] = molecular target: T5, Pim-1 stably transfected into the U2OS human osteogenic sarcoma line (Homo sapiens, UniProt P11309); assay: Pim cell assay, phospho-BAD normalized against total BAD, U2OS stably transfected with Pim-1; format: cell-based; details: read-out: Pim1_Cell_IC50
T5 construct: expressed in transfected cells; host or cells: U2OS human osteogenic sarcoma line
Summary of the method: as §2

T2 sequence (Q9P1W9 whole entry): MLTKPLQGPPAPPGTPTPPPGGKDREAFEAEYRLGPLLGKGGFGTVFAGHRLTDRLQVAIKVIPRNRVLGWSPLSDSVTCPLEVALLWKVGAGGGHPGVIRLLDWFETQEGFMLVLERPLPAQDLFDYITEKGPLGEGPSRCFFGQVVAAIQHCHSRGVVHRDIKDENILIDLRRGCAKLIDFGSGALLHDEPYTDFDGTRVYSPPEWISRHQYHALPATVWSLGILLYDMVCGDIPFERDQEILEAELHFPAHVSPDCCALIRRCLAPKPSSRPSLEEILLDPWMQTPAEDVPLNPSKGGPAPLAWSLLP
T4 sequence (Q9P1W9 whole entry): as above
T1 sequence (P11309 whole entry): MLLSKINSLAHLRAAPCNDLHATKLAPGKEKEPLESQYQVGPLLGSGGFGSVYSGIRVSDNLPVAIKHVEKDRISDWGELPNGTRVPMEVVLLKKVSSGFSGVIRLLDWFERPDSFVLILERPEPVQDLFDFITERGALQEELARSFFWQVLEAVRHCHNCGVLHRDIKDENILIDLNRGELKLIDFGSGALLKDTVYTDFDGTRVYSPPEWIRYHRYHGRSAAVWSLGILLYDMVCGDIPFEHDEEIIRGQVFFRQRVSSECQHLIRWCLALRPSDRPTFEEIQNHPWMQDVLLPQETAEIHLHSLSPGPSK
T5 sequence (P11309 whole entry): as above

Structure (SMILES) | IC50 [1] [nM] | IC50 [2] [nM] | IC50 [3] [nM] | IC50 [4] [nM] | IC50 [5] [nM] | IC50 ([1]; enzyme assay, Pim-1) [nM] | IC50 ([3]; enzyme assay, Pim-2) [nM] | IC50 [6] [nM]
CC(O)c1cccc(-c2ccc3[nH]cc(-c4cncc(O[C@@H]5CCCNC5)n4)c3c2)c1 (mixture of isomers) [Example 359] | 9 | 4840 | 21 | – | – | – | – | –
O[C@@H]1CN(c2cncc(-c3n[nH]c4ccc(-c5c(F)cccc5F)cc34)n2)CC[C@@H]1O (racemic) [Example 248, cis-1-(6-(5-(2,6-difluorophenyl)-1H-indazol-3-yl)-2-pyrazinyl)-3,4-piperidinediol] | 17 | > 31600 | 43 | – | – | – | – | –
Fc1cccc(F)c1-c1ccc2[nH]nc(-c3cncc(CC4CCCNC4)n3)c2c1 (racemic) [Example 272, 5-(2,6-difluorophenyl)-3-(6-(3-piperidinylmethyl)-2-pyrazinyl)-1H-indazole ditrifluoroacetate] | 13 | 13000 | 54 | – | – | – | – | –
O=c1cc(-c2n[nH]c3ccc(-c4ccc(Cl)cc4F)cc23)nc(O[C@@H]2CNCC[C@H]2F)[nH]1 (racemic) [Example 283, 6-(5-(4-chloro-2-fluorophenyl)-1H-indazol-3-yl)-2-((trans-4-fluoropiperidin-3-yl)oxy)pyrimidin-4(3H)-one trifluoroacetate] | 2 | 1890 | 1 | – | – | – | – | –
O=c1cc(-c2n[nH]c3ccc(-c4nccs4)cc23)nc(O[C@@H]2CNCC[C@H]2F)[nH]1 (racemic) [Example 289, 2-((trans-4-fluoropiperidin-3-yl)oxy)-6-(5-(thiazol-2-yl)-1H-indazol-3-yl)pyrimidin-4(3H)-one trifluoroacetate] | – | 3540 | 1 | – | – | – | – | –
CC(c1ccc2[nH]nc(-c3cncc(O[C@H]4CNCCC45CC5)n3)c2c1)C(F)(F)F (single isomer, unassigned) [Example 259] | 13 | 2800 | 6 | – | – | – | – | –
CC(c1ccc2[nH]nc(-c3cncc(O[C@H]4CNCCC45CC5)n3)c2c1)C(F)(F)F (single isomer, unassigned) [Example 260] | 9 | 2190 | 5 | – | – | – | – | –
CC(C)C1CCNCC1Oc1cncc(-c2n[nH]c3ccc(-c4c(F)cccc4F)cc23)n1 (single isomer, unassigned) [Example 395] | 6 | 10000 | 9 | – | – | – | – | –
Fc1cccc(F)c1-c1ccc2[nH]nc(-c3cncc(OC4C=CCNC4)n3)c2c1 (single isomer, unassigned) [Example 427] | 13 | > 15800 | 37 | – | – | – | – | –
Fc1cccc(F)c1-c1ccc2[nH]nc(-c3cncc(OC4CCNCC45CC5)n3)c2c1 (single isomer, unassigned) [Example 430] | 1 | 7850 | 6 | – | – | – | – | –
Fc1cccc(F)c1-c1ccc2[nH]cc(-c3cncc(OC4CNCCC45CC5)n3)c2c1 (single isomer, unassigned) [Example 438] | 1 | 11900 | 2 | – | – | – | – | –
CC1CNCC(Oc2cncc(-c3n[nH]c4ccc(-c5c(F)cccc5F)cc34)n2)C1 (single isomer, unassigned) [Example 469] | 2 | 3050 | 4 | – | – | – | – | –
CC1CNCC(Oc2nc(O)cc(-c3n[nH]c4ccc(-c5c(F)cccc5F)cc34)n2)C1 (single isomer, unassigned) [Example 568] | 20 | 2090 | 21 | – | – | – | – | –
CC1CNCC(Oc2nc(O)cc(-c3n[nH]c4ccc(-c5c(F)cccc5F)cc34)n2)C1 (single isomer, unassigned) [Example 569] | 1 | 282 | 1 | – | – | – | – | –
CC(C)Oc1cncc(-c2ccc3[nH]cc(-c4ccc5cn[nH]c5c4)c3c2)n1 [Example 221, 6-(5-(6-(1-methylethoxy)-2-pyrazinyl)-1H-indol-3-yl)-1H-indazole] | – | – | – | 33 | > 31600 | 50 | 506 | 1920
CC(C)Oc1cncc(-c2ccc3[nH]cc(-c4cncc(N5CCOCC5)n4)c3c2)n1 [Example 225, 5-(6-(1-methylethoxy)-2-pyrazinyl)-3-(6-(4-morpholinyl)-2-pyrazinyl)-1H-indole] | – | – | – | 138 | > 31600 | 77 | > 3000 | 1470

Structure (SMILES) | IC50 [1] [nM] | IC50 [2] [nM] | IC50 [3] [nM] | IC50 [4] [nM] | IC50 [5] [nM] | IC50 ([1]; enzyme assay, Pim-1) [nM] | IC50 ([3]; enzyme assay, Pim-2) [nM] | IC50 [6] [nM]
CC(C)Oc1cncc(-c2ccc3[nH]cc(-c4csc(-n5ccccc5=O)n4)c3c2)n1 [Example 227, 1-(4-(5-(6-(1-methylethoxy)-2-pyrazinyl)-1H-indol-3-yl)-1,3-thiazol-2-yl)-2(1H)-pyridinone] | – | – | – | 206 | > 15800 | 100 | > 3000 | > 15800
CC(C)Oc1cncc(-c2ccc3[nH]cc(-c4csc(-n5ccnc5)n4)c3c2)n1 [Example 228, 3-(2-(1H-imidazol-1-yl)-1,3-thiazol-4-yl)-5-(6-(1-methylethoxy)-2-pyrazinyl)-1H-indole] | – | – | – | 42 | > 31600 | 43 | 1410 | 3420
CC(C)Oc1cncc(-c2ccc3[nH]cc(-c4cncc(N(C)C)n4)c3c2)n1 [Example 230, N,N-dimethyl-6-(5-(6-(1-methylethoxy)-2-pyrazinyl)-1H-indol-3-yl)-2-pyrazinamine] | – | – | – | 50 | > 31600 | 89 | 2360 | 2830
O=C(NC1CC1)c1cccc(-c2ccc3[nH]nc(-c4cncc(O[C@H]5CNCCC56CC6)n4)c3c2)c1 [Example 247, 3-(3-(6-((4R)-6-azaspiro[25]oct-4-yloxy)-2-pyrazinyl)-1H-indazol-5-yl)-N-cyclopropylbenzamide] | 4 | 4310 | 4 | – | – | – | – | –
CC(C)c1ccc2[nH]nc(-c3cncc(O[C@H]4CNCCC45CC5)n3)c2c1 [Example 253, 3-(6-((4R)-6-azaspiro[2.5]oct-4-yloxy)-2-pyrazinyl)-5-(1-methylethyl)-1H-indazole] | 9 | 5580 | 9 | – | – | – | – | –
C=C(C)c1ccc2[nH]nc(-c3cncc(O[C@H]4CNCCC45CC5)n3)c2c1 [Example 256, 3-(6-((4R)-6-azaspiro[2.5]oct-4-yloxy)-2-pyrazinyl)-5-(1-methylethenyl)-1H-indazole] | 6 | 3280 | 11 | – | – | – | – | –
C=C(c1ccc2[nH]nc(-c3cncc(O[C@H]4CNCCC45CC5)n3)c2c1)C(F)(F)F [Example 257, 3-(6-((4R)-6-azaspiro[2.5]oct-4-yloxy)-2-pyrazinyl)-5-(1-(trifluoromethyl)ethenyl)-1H-indazole] | 4 | 1170 | 2 | – | – | – | – | –
CC(c1ccc2[nH]nc(-c3cncc(O[C@H]4CNCCC45CC5)n3)c2c1)C(F)(F)F (stereo partly drawn) [Example 258, 3-(6-((4R)-6-azaspiro[25]oct-4-yloxy)-2-pyrazinyl)-5-(2,2,2-trifluoro-1-methylethyl)-1H-indazole] | 9 | 3190 | 6 | – | – | – | – | –
FC(F)(F)C1(c2ccc3[nH]nc(-c4cncc(O[C@H]5CNCCC56CC6)n4)c3c2)CC1 [Example 261, 3-(6-((4R)-6-azaspiro[2.5]oct-4-yloxy)-2-pyrazinyl)-5-(1-(trifluoromethyl)cyclopropyl)-1H-indazole] | 6 | 1490 | 4 | – | – | – | – | –
CC1(c2ccc3[nH]nc(-c4cncc(O[C@H]5CNCCC56CC6)n4)c3c2)CC1 [Example 262, 3-(6-((4R)-6-azaspiro[2.5]oct-4-yloxy)-2-pyrazinyl)-5-(1-methylcyclopropyl)-1H-indazole] | 4 | 2220 | 5 | – | – | – | – | –
COC(=O)c1ccc2[nH]nc(-c3cncc(O[C@H]4CNCCC45CC5)n3)c2c1 [Example 265, methyl 3-(6-((4R)-6-azaspiro[25]oct-4-yloxy)-2-pyrazinyl)-1H-indazole-5-carboxylate bis(2,2,2-trifluoroacetate)] | 9 | 5780 | 35 | – | – | – | – | –
CC(=O)Nc1ccc(-c2ccc3[nH]nc(-c4cncc(O[C@H]5CNCCC56CC6)n4)c3c2)c(F)c1 [Example 462] | – | 560 | 1 | – | – | – | – | –
Nc1ccc(-c2ccc3[nH]nc(-c4cncc(O[C@H]5CNCCC56CC6)n4)c3c2)c(F)n1 [Example 466] | – | 346 | 1 | – | – | – | – | –
O=c1cc(-c2n[nH]c3cc(F)c(-c4c(F)cccc4F)cc23)nc(O[C@H]2CNCC[C@@H]2F)[nH]1 [Example 544] | – | 633 | 1 | – | – | – | – | –
O=c1cc(-c2n[nH]c3ccc(-c4c(F)cccc4F)cc23)nc(OC2CNCCC2F)[nH]1 (stereo not shown) [Example 555] | – | 307 | – | – | – | – | – | –
